Source: patent US6653455B1, “Crystallization of doxorubicin hydrochloride” (Mercian Corporation, priority 1998, dated 2003)
Structures can show the parent of a compound that is named as a salt.

Legend:
[1] = Hygroscopicity, cup method (weight change); type: physicochemical; conditions: weight-increasing rate, 25° C., 50 to 60% RH, 15 minutes; crystals dried at 40° C. under vacuum; hydrochloride
Procedure: Determined by the following cup method. To be specific, about 15 to 20 mg of the sample was put in a cylindrical cup having a diameter of 6 mm and a depth of 6 mm and left standing at a fixed temperature (25° C.) and relative humidity (50 to 60% RH) for 15 minutes to measure a weight change, whereby the hygroscopicity was evaluated.
In the following respective examples, a weight-increasing rate of 0.40% or more is shown by an evaluation criterion that the hygroscopicity is large (−); a weight-increasing rate of 0.20% or more and less than 0.40% is shown by an evaluation criterion that the hygroscopicity is ;intermediate (±); and a weight-increasing rate of less than 0.20% is shown by an evaluation criterion that the hygroscopicity is small: (+).

[2] = Average particle diameter, microscopic method (Heywood circle-corresponding diameter); type: physicochemical; conditions: 10 typical crystals on photograph, hydrochloride
Text: The average particle diameter is shown by a diameter of a circle having the same area as an injected area of the particle, a so-called Heywood diameter (circle-corresponding diameter) according to a microscopic method (injected image). A small amount of the crystals was put on a slide glass, and 1 to 2 drops of a hydrophilic surfactant (sesquioleic acid sorbitan) were fallen thereon to disperse them. It was photographed by means of a polarization microscope (photographing lens: 3.3 magnifications, objective lens: 20 magnifications) equipped with a photographing device. Optional 10 pieces of the typical crystals were selected on the photograph to measure a long diameter and a short diameter thereof An (projected) area of the particle was shown by long diameter×short diameter, and the particle diameter was shown by a diameter of a circle having the same area as that obtained above.

Average particle diameter [2] [μm] | Compound | Hygroscopicity [1]
<4 | COc1cccc2c1C(=O)c1c(O)c3c(c(O)c1C2=O)C[C@@](O)(C(=O)CO)C[C@@H]3O[C@H]1C[C@H](N)[C@H](O)[C@H](C)O1 [Example 59, doxorubicin hydrochloride] | − (a weight-increasing rate of 0.40% or more is shown by an evaluation criterion that the hygroscopicity is large (−))
17 | COc1cccc2c1C(=O)c1c(O)c3c(c(O)c1C2=O)C[C@@](O)(C(=O)CO)C[C@@H]3O[C@H]1C[C@H](N)[C@H](O)[C@H](C)O1 [Example 19, doxorubicin hydrochloride] | ± (a weight-increasing rate of 0.20% or more and less than 0.40% is shown by an evaluation criterion that the hygroscopicity is ;intermediate (±))
7 | COc1cccc2c1C(=O)c1c(O)c3c(c(O)c1C2=O)C[C@@](O)(C(=O)CO)C[C@@H]3O[C@H]1C[C@H](N)[C@H](O)[C@H](C)O1 [Example 20, doxorubicin hydrochloride] | + (a weight-increasing rate of less than 0.20% is shown by an evaluation criterion that the hygroscopicity is small: (+))
46 | COc1cccc2c1C(=O)c1c(O)c3c(c(O)c1C2=O)C[C@@](O)(C(=O)CO)C[C@@H]3O[C@H]1C[C@H](N)[C@H](O)[C@H](C)O1 [Example 45, doxorubicin hydrochloride] | + (a weight-increasing rate of less than 0.20% is shown by an evaluation criterion that the hygroscopicity is small: (+))
<4 | COc1cccc2c1C(=O)c1c(O)c3c(c(O)c1C2=O)C[C@@](O)(C(=O)CO)C[C@@H]3O[C@H]1C[C@H](N)[C@H](O)[C@H](C)O1 [Example 4, doxorubicin hydrochloride] | − (a weight-increasing rate of 0.40% or more is shown by an evaluation criterion that the hygroscopicity is large (−))
18 | COc1cccc2c1C(=O)c1c(O)c3c(c(O)c1C2=O)C[C@@](O)(C(=O)CO)C[C@@H]3O[C@H]1C[C@H](N)[C@H](O)[C@H](C)O1 [Example 40, doxorubicin hydrochloride] | ± (a weight-increasing rate of 0.20% or more and less than 0.40% is shown by an evaluation criterion that the hygroscopicity is ;intermediate (±))
34 | COc1cccc2c1C(=O)c1c(O)c3c(c(O)c1C2=O)C[C@@](O)(C(=O)CO)C[C@@H]3O[C@H]1C[C@H](N)[C@H](O)[C@H](C)O1 [Example 32, doxorubicin hydrochloride] | + (a weight-increasing rate of less than 0.20% is shown by an evaluation criterion that the hygroscopicity is small: (+))
54 | COc1cccc2c1C(=O)c1c(O)c3c(c(O)c1C2=O)C[C@@](O)(C(=O)CO)C[C@@H]3O[C@H]1C[C@H](N)[C@H](O)[C@H](C)O1 [Example 21, doxorubicin hydrochloride] | + (a weight-increasing rate of less than 0.20% is shown by an evaluation criterion that the hygroscopicity is small: (+))

Further lines, the compound ahead of its results:

Compound | Average particle diameter [2] [μm] | Hygroscopicity [1]
COc1cccc2c1C(=O)c1c(O)c3c(c(O)c1C2=O)C[C@@](O)(C(=O)CO)C[C@@H]3O[C@H]1C[C@H](N)[C@H](O)[C@H](C)O1 [Example 48, doxorubicin hydrochloride] | 89 | + (a weight-increasing rate of less than 0.20% is shown by an evaluation criterion that the hygroscopicity is small: (+))
COc1cccc2c1C(=O)c1c(O)c3c(c(O)c1C2=O)C[C@@](O)(C(=O)CO)C[C@@H]3O[C@H]1C[C@H](N)[C@H](O)[C@H](C)O1 [Example 13, doxorubicin hydrochloride] | <4 | ± (a weight-increasing rate of 0.20% or more and less than 0.40% is shown by an evaluation criterion that the hygroscopicity is ;intermediate (±))
COc1cccc2c1C(=O)c1c(O)c3c(c(O)c1C2=O)C[C@@](O)(C(=O)CO)C[C@@H]3O[C@H]1C[C@H](N)[C@H](O)[C@H](C)O1 [Example 44, doxorubicin hydrochloride] | 28 | + (a weight-increasing rate of less than 0.20% is shown by an evaluation criterion that the hygroscopicity is small: (+))
COc1cccc2c1C(=O)c1c(O)c3c(c(O)c1C2=O)C[C@@](O)(C(=O)CO)C[C@@H]3O[C@H]1C[C@H](N)[C@H](O)[C@H](C)O1 [Example 47, doxorubicin hydrochloride] | 60 | ± (a weight-increasing rate of 0.20% or more and less than 0.40% is shown by an evaluation criterion that the hygroscopicity is ;intermediate (±))
COc1cccc2c1C(=O)c1c(O)c3c(c(O)c1C2=O)C[C@@](O)(C(=O)CO)C[C@@H]3O[C@H]1C[C@H](N)[C@H](O)[C@H](C)O1 [Example 28, doxorubicin hydrochloride] | 37 | + (a weight-increasing rate of less than 0.20% is shown by an evaluation criterion that the hygroscopicity is small: (+))
COc1cccc2c1C(=O)c1c(O)c3c(c(O)c1C2=O)C[C@@](O)(C(=O)CO)C[C@@H]3O[C@H]1C[C@H](N)[C@H](O)[C@H](C)O1 [Example 16, doxorubicin hydrochloride] | <4 | ± (a weight-increasing rate of 0.20% or more and less than 0.40% is shown by an evaluation criterion that the hygroscopicity is ;intermediate (±))
COc1cccc2c1C(=O)c1c(O)c3c(c(O)c1C2=O)C[C@@](O)(C(=O)CO)C[C@@H]3O[C@H]1C[C@H](N)[C@H](O)[C@H](C)O1 [Example 42, doxorubicin hydrochloride] | 34 | + (a weight-increasing rate of less than 0.20% is shown by an evaluation criterion that the hygroscopicity is small: (+))
COc1cccc2c1C(=O)c1c(O)c3c(c(O)c1C2=O)C[C@@](O)(C(=O)CO)C[C@@H]3O[C@H]1C[C@H](N)[C@H](O)[C@H](C)O1 [Example 43, doxorubicin hydrochloride] | – | + (a weight-increasing rate of less than 0.20% is shown by an evaluation criterion that the hygroscopicity is small: (+))
COc1cccc2c1C(=O)c1c(O)c3c(c(O)c1C2=O)C[C@@](O)(C(=O)CO)C[C@@H]3O[C@H]1C[C@H](N)[C@H](O)[C@H](C)O1 [Example 29, doxorubicin hydrochloride] | – | + (a weight-increasing rate of less than 0.20% is shown by an evaluation criterion that the hygroscopicity is small: (+))
COc1cccc2c1C(=O)c1c(O)c3c(c(O)c1C2=O)C[C@@](O)(C(=O)CO)C[C@@H]3O[C@H]1C[C@H](N)[C@H](O)[C@H](C)O1 [Example 53, doxorubicin hydrochloride] | – | + (a weight-increasing rate of less than 0.20% is shown by an evaluation criterion that the hygroscopicity is small: (+))
COc1cccc2c1C(=O)c1c(O)c3c(c(O)c1C2=O)C[C@@](O)(C(=O)CO)C[C@@H]3O[C@H]1C[C@H](N)[C@H](O)[C@H](C)O1 [Example 17, doxorubicin hydrochloride] | – | − (a weight-increasing rate of 0.40% or more is shown by an evaluation criterion that the hygroscopicity is large (−))
COc1cccc2c1C(=O)c1c(O)c3c(c(O)c1C2=O)C[C@@](O)(C(=O)CO)C[C@@H]3O[C@H]1C[C@H](N)[C@H](O)[C@H](C)O1 [Example 37, doxorubicin hydrochloride] | – | + (a weight-increasing rate of less than 0.20% is shown by an evaluation criterion that the hygroscopicity is small: (+))
COc1cccc2c1C(=O)c1c(O)c3c(c(O)c1C2=O)C[C@@](O)(C(=O)CO)C[C@@H]3O[C@H]1C[C@H](N)[C@H](O)[C@H](C)O1 [Example 9, doxorubicin hydrochloride] | – | − (a weight-increasing rate of 0.40% or more is shown by an evaluation criterion that the hygroscopicity is large (−))
COc1cccc2c1C(=O)c1c(O)c3c(c(O)c1C2=O)C[C@@](O)(C(=O)CO)C[C@@H]3O[C@H]1C[C@H](N)[C@H](O)[C@H](C)O1 [Example 26, doxorubicin hydrochloride] | – | + (a weight-increasing rate of less than 0.20% is shown by an evaluation criterion that the hygroscopicity is small: (+))
COc1cccc2c1C(=O)c1c(O)c3c(c(O)c1C2=O)C[C@@](O)(C(=O)CO)C[C@@H]3O[C@H]1C[C@H](N)[C@H](O)[C@H](C)O1 [Example 41, doxorubicin hydrochloride] | – | + (a weight-increasing rate of less than 0.20% is shown by an evaluation criterion that the hygroscopicity is small: (+))
COc1cccc2c1C(=O)c1c(O)c3c(c(O)c1C2=O)C[C@@](O)(C(=O)CO)C[C@@H]3O[C@H]1C[C@H](N)[C@H](O)[C@H](C)O1 [Example 50, doxorubicin hydrochloride] | – | + (a weight-increasing rate of less than 0.20% is shown by an evaluation criterion that the hygroscopicity is small: (+))
COc1cccc2c1C(=O)c1c(O)c3c(c(O)c1C2=O)C[C@@](O)(C(=O)CO)C[C@@H]3O[C@H]1C[C@H](N)[C@H](O)[C@H](C)O1 [Example 52, doxorubicin hydrochloride] | – | + (a weight-increasing rate of less than 0.20% is shown by an evaluation criterion that the hygroscopicity is small: (+))
